Results from patent EP0403249A1, “Leukotriene antagonists” (SMITHKLINE BEECHAM CORPORATION, priority 1989, dated 1990).

tested on: LTD₄; test: Inhibition of leukotriene (LTD₄) induced contraction of guinea pig tracheal tissues in vitro; conditions: LTD₄ concentration-response on guinea pig tracheal spiral strips, 30 minutes pretreatment with test compound, EC₃₀ shift; current average where tested more than once
Description: The leukotriene antagonist activity of the compounds of this invention is measured by the ability of the compounds to inhibit the leukotriene induced contraction' of guinea pig tracheal tissues in vitro. The following methodology was employed: In vitro: Guinea pig (adult male albino Hartley strain) tracheal spiral strips of approximate dimensions 2 to 3 mm cross-sectional width and 3.5 cm length were bathed in modified Krebs buffer in jacketed 10 ml tissue bath and continuously aerated with 95% 0₂/5% CO₂. The tissues were connected via silk suture to force displacement transducers for recording isometric tension. The tissues were equilibrated for 1 hr., pretreated for 15 minutes with meclofenamic acid (1uM) to remove intrinsic prostaglandin responses, and then pretreated for an additional 30 minutes with either the test compound or vehicle control. A cumulative concentration-response curve for LTD₄ on triplicate tissues was generated by successive increases in the bath concentration of the LTD₄. In order to minimize intertissue variability, the contractions elicited by LTD₄ were standardized as a percentage of the maximum response obtained to a reference agonist, carbachol (10uM).
Calculations: The averages of the triplicate LTD₄ concentration-response curves both in the presence and absence of the test compound were plotted on log graph paper. The concentration of LTD₄ needed to elicit 30% of the contraction elicited by carbachol was measured and defined as the EC₃₀. The -log KB value for the test compound was determined by the following equations: [formula] 2. KB= concentration of test compound/(X-1)
The antagonist activity of representative compounds of this invention is listed in Table I. The -log KB values were calculated from the above protocol. Where compounds were tested more than once, the -log KB values given here represent the current average data.

Going from O=C(O)C(O)C(Sc1ccc(O)cc1)c1ccccc1CCCCCCCCc1ccccc1 (stereo not shown) [10), 2-Hydroxy-3-(4-hydroxyphenylthio)-3-[2-(8-phenyloctyl)phenyl]propionic acid] to O=C(O)c1ccc(SC(c2ccccc2CCCCCCCCc2ccccc2)C(O)C(=O)O)cc1 (stereo not shown) [5), 2-Hydroxy-3-(4-carboxyphenylthio)-3-[2-(8-phenyloctyl)phenyl]propionic acid], the “In Vitro-Log KB” value rises from 5.9 to 7.6.

Going from COc1cc(C(=O)O)ccc1CSC(c1ccccc1CCCCCCCCc1ccccc1)C(O)C(=O)O (stereo not shown) [6), 2-Hydroxy-3-(4-carboxy-2-methoxyphenylmethylthio)-3-[2-(8-phenyloctyl)phenyl]propionic acid] to COc1ccc(C(=O)O)cc1CSC(c1ccccc1CCCCCCCCc1ccccc1)C(O)C(=O)O (stereo not shown) [13), 2-Hydroxy-3-[(5-carboxy-2-methoxyphenylmethyl)thio]-3-[2-(8-phenyloctyl)phenyl]propionic acid], the “In Vitro-Log KB” value falls from 7.9 to 6.5.

Going from O=C(O)c1ccc(CSC(c2ccccc2CCCCCCCCc2ccccc2)C(O)C(=O)O)c(F)c1 (stereo not shown) [8), 2-Hydroxy-3-(2-fluoro-4-carboxyphenylmethylthio)-3-[2-(8-phenyloctyl)phenyl]propionic acid] to O=C(O)c1cccc(CS[C@H](c2ccccc2CCCCCCCCc2ccccc2)[C@@H](O)C(=O)O)c1 [3), 2(S)-Hydroxy-3(R)-(3-carboxyphenylmethylthio)-3-[2-(8-phenyloctyl)phenyl]propionic acid], the “In Vitro-Log KB” value falls from 7.8 to 6.6.

COc1cc(C(=O)O)ccc1CSC(CC(=O)O)c1ccccc1CCCCCCCCc1ccccc1 (stereo not shown) [12), 3-(4-Carboxy-2-methoxyphenylmethylthio)-3-[2-(8-phenyloctyl)phenyl]propionic acid] and COc1cc(C(=O)O)ccc1CSC(c1ccccc1CCCCCCCCc1ccccc1)C(OC)C(=O)O (stereo not shown) [11), 2-Methoxy-3-(4-carboxy-2-methoxyphenylmethylthio)-3-[2-(8-phenyloctyl)phenyl]propionic acid] are within 0.2 log units of each other in “In Vitro-Log KB” value: 7.5 for the first, 7.4 for the second.

First: O=C(O)c1ccccc1SC(c1ccccc1CCCCCCCCc1ccccc1)C(O)C(=O)O (stereo not shown) [1), 2-Hydroxy-3-(2-carboxyphenylthio)-3-[2-(8-phenyloctyl)phenyl]propionic acid]
Second: O=C(O)c1ccccc1CS[C@H](c1ccccc1CCCCCCCCc1ccccc1)[C@@H](O)C(=O)O [2), 2(S)-Hydroxy-3(R)-(2-carboxyphenylmethylthio)-3-[2-(8-phenyloctyl)phenyl]propionic acid]
The “In Vitro-Log KB” value of the first is lower: 5.5 for the first, 6.2 for the second.

Going from COC(C(=O)O)C(Sc1ccc(C(=O)O)cc1)c1ccccc1CCCCCCCCc1ccccc1 (stereo not shown) [9), 2-Methoxy-3-(4-carboxyphenylthio)-3-[2-(8-phenyloctyl)phenyl]propionic acid] to O=C(O)c1ccc(CSC(c2ccccc2CCCCCCCCc2ccccc2)C(O)C(=O)O)cc1 (stereo not shown) [7), 2-Hydroxy-3-(4-carboxyphenylmethylthio)-3-[2-(8-phenyloctyl)phenyl]propionic acid], the “In Vitro-Log KB” value falls from 7.6 to 7.1.

O=C(O)c1cccc(SC(c2ccccc2CCCCCCCCc2ccccc2)C(O)C(=O)O)c1 (stereo not shown) [4), 2-Hydroxy-3-(3-carboxyphenylthio)-3-[2-(8-phenyloctyl)phenyl]propionic acid] was tested, and the “In Vitro-Log KB” value was 7.0.
